The test system of experiment [1] is Glycine max. Kind of experiment: Catalytic rate constant was evaluated for the soybean sterol methyl transferase (SMT) action.
The test system of experiment [2] is Glycine max. Kind of experiment: Maximum rate of inactivation for the soybean sterol methyl transferase (SMT) action was determined.
Experiment [3] can be described thus: Apparent Ki value was calculated. The arrangement: species or system Glycine max.
Experiment [4] can be described thus: Ratio of kcat to kinact for the compound was determined.
For experiment [5], the system named is Glycine max. As to the kind of experiment: Michaelis-Menten constant was evaluated for the soybean sterol methyl transferase (SMT) action.
Experiment [6] concerns Glycine max. Kind of experiment: Catalytic competence for sterol methyl transferase (SMT) assay was determined.
Experiment [7] relates to Glycine max. As to the kind of experiment: Catalytic competence for soybean sterol methyl transferase (SMT) assay was determined.
Experiment [8] can be described thus: Compound (100 uM) and 26,27-DHC for 45 min.
The nature of experiment [9]: Compound (50 uM) and 26,27-DHC for 45 min.

The source of these data is ChEMBL document CHEMBL1146707, “Mechanism-based active site modification of the soybean sterol methyltransferase by 26,27-dehydrocycloartenol” (Bioorg Med Chem Lett, 2004).

In general, Km refers to the substrate concentration at which the rate is half of its maximum.

In turn, `CC(CCC=C1CC1)C1CC[C@@]2(C)C3CCC4C(C)(C)C(O)CCC45CC35CCC12C` (some centres not stated) showed a k cat in [1] of 0.0003 s⁻¹. The K inact in experiment [2] was 0.29 min⁻¹. Also, the Ki in experiment [3] was 42 µM. Moreover, the Ratio in [4] was found to be 0.06. Also, the Michaelis-Menten constant (Km) in experiment [5] was determined as 10 µM. In [6], this compound came in with an Activity of 3e-05.
In [1], `CC(C)=CCCC(C)C1CC[C@@]2(C)C3CCC4C(C)(C)C(O)CCC45CC35CCC12C` (some centres not stated) displayed a k cat of 0.01 s⁻¹. The Activity in experiment [7] was found to be 3e-05; in experiment [8] it was 33%; in experiment [9], 48%. The Km in experiment [5] worked out at 30 µM.
With `C=C(CCC(C)C1CC[C@@]2(C)C3CCC4C(C)(C)C(O)CCC45CC35CCC12C)C(C)C` (some centres not stated), in experiment [7], the Activity was found to be 3e-05.
